Assay results: patent US20250000989A1, “PYRROLO BENZODIAZEPINE DERIVATIVE, AND CONJUGATE, PREPARATION METHOD AND USE THEREOF” (priority 2021, published 2025)

How the values were obtained:
Assay in all cases: Inhibition of in vitro proliferation of tumor cells by PBD compounds (CTG)
Format in all cases: cell-based
[1] = system: MKN45 (human gastric cancer cells); conditions: MKN-45, 144 h, 6 days of culture
Procedure: (§1) The objective of this assay is to measure the activity of the compounds of the present disclosure in inhibiting the proliferation of different tumor cell lines: SK-BR-3 tumor cells (human breast cancer cells, ATCC, Cat. No. HTB-30), NCI-H23 (human non-small cell lung cancer cells, Nanjing Cobioer, Cat. No. CBP60132), and MKN45 (human gastric cancer cells, Nanjing Cobioer, Cat. No. CBP60488). The cells were treated in vitro with different concentrations of the compounds. After 6 days of culture, the proliferation of the cells was measured using CTG (CellTiter-Glo® Luminescent Cell Viability Assay, Promega, Cat. No. G7573) reagent, and the in vitro activity of the compounds was evaluated based on their IC50 values.
(§2) • 1. Cell culture: SK-BR-3, NCI-H23, and MKN45 cells were separately cultured in McCoy's 5A medium (ThermoFisher, Cat. No. 16600108) and RPMI 1640 medium (ThermoFisher, Cat. No. 11875119) containing 10% FBS (Gibco, 10099-141). • 2. Cell plating: After being digested with trypsin (0.25% Trypsin-EDTA (1×), Life Technologies, Cat. No. 25200-072), the SK-BR-3, NCI-H23, and MKN45 were resuspended in their respective media and counted. The density was adjusted to 1.48×10^4 cells/mL, and the cells were plated onto 96-well plates (corning, Cat. No. 3903) at 135 μL/well, i.e., 2000 cells/well, and cultured at 37° C. for 24 h. • 3. Drug formulation: PBD drugs were formulated in round-bottom 96-well plates. Plate 1: In the first column, the concentration was 0.05 mM; in the second column through the fourth column, a 3-fold serial dilution was performed in DMSO; in the fifth column through the sixth column, a 5-fold serial dilution was performed in DMSO; in the seventh column through the ninth column, a 10-fold serial dilution was performed in DMSO; and the tenth column contained DMSO. Plate 2: Corresponding media were added to the first column through the tenth column at 196 μL/well; 4 μL of solution was transferred from each well of the first column through the tenth column of plate 1 to plate 2 and well mixed with the medium; 15 μL of the mixture was added to the cells plated the day before, and the cells were cultured at 37° C. for another 6 days. • 4. CTG assay: The cell culture plates were taken out and equilibrated to room temperature. CTG was added at 75 μL/well, and the plates were incubated at room temperature in the dark for 10 min. Then luminescence values were measured on a microplate reader (BMG labtech, PHERAstar FS).

[2] = system: NCI-H23 (human non-small cell lung cancer cells); conditions: 144 h, 6 days of culture
Procedure: as §1, §2

[3] = system: SK-BR-3 tumor cells (human breast cancer cells); conditions: 144 h, 6 days of culture
Procedure: as §1, §2

COc1cc2c(cc1OCCCCCOc1cc3c(cc1OC)C(=O)N1C=C(c4ccc(SCC5CC5)cc4)C[C@H]1CN3)N=C[C@@H]1CC3(CC3)CN1C2=O [2-34, (S)-8-((5-(((S)-2-(4-((Cyclopropylmethyl)thio)phenyl)-7-methoxy-5-oxo-5,10,11,11a-tetrahydro-1H-benzo[e]pyrrolo[1,2-a][1,4]diazepin-8-yl)oxy)pentyl)oxy)-7-methoxy-1,11a-dihydro-3H,5H-spiro[benzo[e]pyrrolo[1,2-a][1,4]diazepine-2,1′-cyclopropan]-5-one]
IC50 [1]: 1.37 nM
IC50 [2]: 0.62 nM
IC50 [3]: 1.42 nM

COc1cc2c(cc1OCCCCCOc1cc3c(cc1OC)C(=O)N1C=C(c4ccc(C5CCN(C)CC5)cc4)C[C@H]1CN3)N=C[C@@H]1CC3(CC3)CN1C2=O [2-6, (S)-7-Methoxy-8-((5-(((S)-7-methoxy-2-(4-(1-methylpiperidin-4-yl)phenyl)-5-oxo-5,10,11,11a-tetrahydro-1H-benzo[e]pyrrolo[1,2-a][1,4]diazepin-8-yl)oxy)pentyl)oxy)-1,11a-dihydro-3H,5H-spiro[benzo[e]pyrrolo[1,2-a][1,4]diazepine-2,1′-cyclopropan]-5-one]
IC50 [1]: 0.06 nM
IC50 [2]: 0.03 nM
IC50 [3]: 0.24 nM

COc1cc2c(cc1OCCCCCOc1cc3c(cc1OC)C(=O)N1C=C(c4ccc(C5CCOCC5)cc4)C[C@H]1CN3)N=C[C@@H]1CC3(CC3)CN1C2=O [2-5, (S)-7-Methoxy-8-((5-(((S)-7-methoxy-5-oxo-2-(4-(tetrahydro-2H-pyran-4-yl)phenyl)-5,10,11,11a-tetrahydro-1H-benzo[e]pyrrolo[1,2-a][1,4]diazepin-8-yl)oxy)pentyl)oxy)-1,11a-dihydro-3H,5H-spiro[benzo[e]pyrrolo[1,2-a][1,4]diazepine-2,1′-cyclopropan]-5-one]
IC50 [1]: 0.91 nM
IC50 [2]: 0.41 nM
IC50 [3]: 1.84 nM

COc1cc2c(cc1OCCCCCOc1cc3c(cc1OC)C(=O)N1C=C(c4ccc(-n5nccn5)cc4)C[C@H]1CN3)N=C[C@@H]1CC3(CC3)CN1C2=O [2-7, (S)-8-((5-(((S)-2-(4-(2H-1,2,3-Triazol-2-yl)phenyl)-7-methoxy-5-oxo-5,10,11,11a-tetrahydro-1H-benzo[e]pyrrolo[1,2-a][1,4]diazepin-8-yl)oxy)pentyl)oxy)-7-methoxy-1,11a-dihydro-3H,5H-spiro[benzo[e]pyrrolo[1,2-a][1,4]diazepine-2,1′-cyclopropan]-5-one]
IC50 [1]: 0.07 nM
IC50 [2]: 0.04 nM
IC50 [3]: 0.08 nM

COc1cc2c(cc1OCCCCCOc1cc3c(cc1OC)C(=O)N1C=C(c4ccc(C5CCN(C(C)=O)CC5)cc4)C[C@H]1CN3)N=C[C@@H]1CC3(CC3)CN1C2=O [2-11, (S)-8-((5-(((S)-2-(4-(1-Acetylpiperidin-4-yl)phenyl)-7-methoxy-5-oxo-5,10,11,11a-tetrahydro-1H-benzo[e]pyrrolo[1,2-a][1,4]diazepin-8-yl)oxy)pentyl)oxy)-7-methoxy-1,11a-dihydro-3H,5H-spiro[benzo[e]pyrrolo[1,2-a][1,4]diazepine-2,1′-cyclopropan]-5-one]
IC50 [1]: 0.69 nM
IC50 [2]: 0.11 nM
IC50 [3]: 0.32 nM

COc1cc2c(cc1OCCCCCOc1cc3c(cc1OC)C(=O)N1C=C(c4ccc(N5CCN(C[C@@H](O)CO)CC5)cc4)C[C@H]1CN3)N=C[C@@H]1CC3(CC3)CN1C2=O [2-31, (S)-8-((5-(((S)-2-(4-(4-((R)-2,3-Dihydroxypropyl)piperazin-1-yl)phenyl)-7-methoxy-5-oxo-5,10,11,11a-tetrahydro-1H-benzo[e]pyrrolo[1,2-a][1,4]diazepin-8-yl)oxy)pentyl)oxy)-7-methoxy-1,11a-dihydro-3H,5H-spiro[benzo[e]pyrrolo[1,2-a][1,4]diazepine-2,1′-cyclopropan]-5-one]
IC50 [1]: 0.1 nM
IC50 [2]: 0.08 nM
IC50 [3]: 0.37 nM

COc1ccc(C2=CN3C(=O)c4cc(OC)c(OCC5(CCCOc6cc7c(cc6OC)C(=O)N6CC8(CC8)C[C@H]6C=N7)CC5)cc4NC[C@@H]3C2)cc1 [2-13, (S)-7-Methoxy-8-(3-(1-((((S)-7-methoxy-2-(4-methoxyphenyl)-5-oxo-5,10,11,11a-tetrahydro-1H-benzo[e]pyrrolo[1,2-a][1,4]diazepin-8-yl)oxy)methyl)cyclopropyl)propoxy)-1,11a-dihydro-3H,5H-spiro[benzo[e]pyrrolo[1,2-a][1,4]diazepine-2,1′-cyclopropan]-5-one]
IC50 [1]: 4.35 nM
IC50 [2]: 1.42 nM
IC50 [3]: 1.64 nM

COc1ccc(C2=CN3C(=O)c4cc(OC)c(OCc5cncc(COc6cc7c(cc6OC)C(=O)N6CC8(CC8)C[C@H]6C=N7)c5)cc4NC[C@@H]3C2)cc1 [2-29]
IC50 [1]: 0.02 nM
IC50 [2]: 0.02 nM
IC50 [3]: 0.08 nM

COc1ccc(C2=CN3C(=O)c4cc(OC)c(OCCCCCOc5cc6c(cc5OC5CC5)C(=O)N5CC7(CC7)C[C@H]5C=N6)cc4NC[C@@H]3C2)cc1 [2-16, (S)-7-Cyclopropoxy-8-((5-(((S)-7-methoxy-2-(4-methoxyphenyl)-5-oxo-5,10,11,11a-tetrahydro-1H-benzo[e]pyrrolo[1,2-a][1,4]diazepin-8-yl)oxy)pentyl)oxy)-1,11a-dihydro-3H,5H-spiro[benzo[e]pyrrolo[1,2-a][1,4]diazepine-2,1′-cyclopropan]-5-one]
IC50 [1]: 0.26 nM
IC50 [2]: 0.18 nM
IC50 [3]: 0.36 nM

COc1cc2c(cc1OCCCCCOc1cc3c(cc1OC)C(=O)N1C=C(c4ccc(-n5cccn5)cc4)C[C@H]1CN3)N=C[C@@H]1CC3(CC3)CN1C2=O [2-4, (S)-8-((5-(((S)-2-(4-(1H-Pyrazol-1-yl)phenyl)-7-methoxy-5-oxo-5,10,11,11a-tetrahydro-1H-benzo[e]pyrrolo[1,2-a][1,4]diazepin-8-yl)oxy)pentyl)oxy)-7-methoxy-1,11a-dihydro-3H,5H-spiro[benzo[e]pyrrolo[1,2-a][1,4]diazepine-2,1′-cyclopropan]-5-one]
IC50 [1]: 1.45 nM
IC50 [2]: 0.34 nM
IC50 [3]: 0.71 nM

COc1ccc(C2=CN3C(=O)c4cc(OC)c(OCCOCCOc5cc6c(cc5OC)C(=O)N5CC7(CC7)C[C@H]5C=N6)cc4NC[C@@H]3C2)cc1 [2-26, (S)-7-Methoxy-8-(2-(2-(((S)-7-methoxy-2-(4-methoxyphenyl)-5-oxo-5,10,11,11a-tetrahydro-1H-benzo[e]pyrrolo[1,2-a][1,4]diazepin-8-yl)oxy)ethoxy)ethoxy)-1,11a-dihydro-3H,5H-spiro[benzo[e]pyrrolo[1,2-a][1,4]diazepine-2,1′-cyclopropan]-5-one]
IC50 [1]: 2.42 nM
IC50 [2]: 2.98 nM
IC50 [3]: 2.12 nM

COc1ccc(C2=CN3C(=O)c4cc(OC)c(OCCCCCOc5cc6c(cc5OC)C(=O)N5CC7(CC7)C[C@H]5C=N6)cc4NC(=O)[C@@H]3C2)cc1 [2-22, (S)-7-Methoxy-8-((5-(((S)-7-methoxy-5-oxo-5,11a-dihydro-1H,3H-spiro[benzo[e]pyrrolo[1,2-a][1,4]diazepine-2,1′-cyclopropan]-8-yl)oxy)pentyl)oxy)-2-(4-methoxyphenyl)-1,11a-dihydro-5H-benzo[e]pyrrolo[1,2-a][1,4]diazepine-5,11(10H)-dione]
IC50 [1]: 0.17 nM
IC50 [2]: 0.08 nM
IC50 [3]: 0.26 nM

COc1cc2c(cc1OCCCCCOc1cc3c(cc1OC)C(=O)N1C=C(c4ccc(N5CCN(CCO)CC5)cc4)C[C@H]1CN3)N=C[C@@H]1CC3(CC3)CN1C2=O [2-30, (S)-8-((5-(((S)-2-(4-(4-(2-Hydroxyethyl)piperazin-1-yl)phenyl)-7-methoxy-5-oxo-5,10,11,11a-tetrahydro-1H-benzo[e]pyrrolo[1,2-a][1,4]diazepin-8-yl)oxy)pentyl)oxy)-7-methoxy-1,11a-dihydro-3H,5H-spiro[benzo[e]pyrrolo[1,2-a][1,4]diazepine-2,1′-cyclopropan]-5-one]
IC50 [1]: 0.04 nM
IC50 [2]: 0.02 nM
IC50 [3]: 0.21 nM

COc1cc2c(cc1OCCCCCOc1cc3c(cc1OC)C(=O)N1C=C(c4ccc(N5CCN(C)CC5)cc4)C[C@H]1CN3)N=C[C@@H]1CC3(CC3)CN1C2=O [2-1, (S)-7-Methoxy-8-((5-(((S)-7-methoxy-2-(4-(4-methylpiperazin-1-yl)phenyl)-5-oxo-5,10,11,11a-tetrahydro-1H-benzo[e]pyrrolo[1,2-a][1,4]diazepin-8-yl)oxy)pentyl)oxy)-1,11a-dihydro-3H,5H-spiro[benzo[e]pyrrolo[1,2-a][1,4]diazepine-2,1′-cyclopropan]-5-one]
IC50 [1]: 0.02 nM
IC50 [2]: 0.02 nM
IC50 [3]: 0.07 nM
